PMC7251018, “Structures of a P4-ATPase lipid flippase in lipid bilayers” (Protein & Cell, 2020)

How the values were obtained:
ctDnf1p-Cdc50p [1] = biological target: T1, ctDnf1p-Cdc50p (Thermochaetoides thermophila, UniProt G0S196); assay: cryo-EM structure in lipid nanodiscs, […] Å; design: gene DNF1; purified heterodimer; reconstituted into lipid nanodiscs (MSP) for cryo-EM; printed residues D606 (phosphorylation site), Q549, N550, S555, S559, E561, N1153, S1158; with Cell division control protein 50 (CDC50 family beta-subunit); settings: E1-ATP state; nucleotide-binding site, extended conformation
ctDnf1p-Cdc50p [2] = biological target: T1, ctDnf1p-Cdc50p; assay: ATPase activity; type: biochemical; design: gene DNF1; purified heterodimer; reconstituted into lipid nanodiscs (MSP) for cryo-EM; printed residues D606 (phosphorylation site), Q549, N550, S555, S559, E561, N1153, S1158; with Cell division control protein 50 (CDC50 family beta-subunit); settings: phospholipid-dependent
ctDnf1p-Cdc50p [3] = biological target: T1, ctDnf1p-Cdc50p; design: gene DNF1; settings: E2P state; phosphorylation site D606; phosphate analogue

T1 sequence (G0S196 whole entry): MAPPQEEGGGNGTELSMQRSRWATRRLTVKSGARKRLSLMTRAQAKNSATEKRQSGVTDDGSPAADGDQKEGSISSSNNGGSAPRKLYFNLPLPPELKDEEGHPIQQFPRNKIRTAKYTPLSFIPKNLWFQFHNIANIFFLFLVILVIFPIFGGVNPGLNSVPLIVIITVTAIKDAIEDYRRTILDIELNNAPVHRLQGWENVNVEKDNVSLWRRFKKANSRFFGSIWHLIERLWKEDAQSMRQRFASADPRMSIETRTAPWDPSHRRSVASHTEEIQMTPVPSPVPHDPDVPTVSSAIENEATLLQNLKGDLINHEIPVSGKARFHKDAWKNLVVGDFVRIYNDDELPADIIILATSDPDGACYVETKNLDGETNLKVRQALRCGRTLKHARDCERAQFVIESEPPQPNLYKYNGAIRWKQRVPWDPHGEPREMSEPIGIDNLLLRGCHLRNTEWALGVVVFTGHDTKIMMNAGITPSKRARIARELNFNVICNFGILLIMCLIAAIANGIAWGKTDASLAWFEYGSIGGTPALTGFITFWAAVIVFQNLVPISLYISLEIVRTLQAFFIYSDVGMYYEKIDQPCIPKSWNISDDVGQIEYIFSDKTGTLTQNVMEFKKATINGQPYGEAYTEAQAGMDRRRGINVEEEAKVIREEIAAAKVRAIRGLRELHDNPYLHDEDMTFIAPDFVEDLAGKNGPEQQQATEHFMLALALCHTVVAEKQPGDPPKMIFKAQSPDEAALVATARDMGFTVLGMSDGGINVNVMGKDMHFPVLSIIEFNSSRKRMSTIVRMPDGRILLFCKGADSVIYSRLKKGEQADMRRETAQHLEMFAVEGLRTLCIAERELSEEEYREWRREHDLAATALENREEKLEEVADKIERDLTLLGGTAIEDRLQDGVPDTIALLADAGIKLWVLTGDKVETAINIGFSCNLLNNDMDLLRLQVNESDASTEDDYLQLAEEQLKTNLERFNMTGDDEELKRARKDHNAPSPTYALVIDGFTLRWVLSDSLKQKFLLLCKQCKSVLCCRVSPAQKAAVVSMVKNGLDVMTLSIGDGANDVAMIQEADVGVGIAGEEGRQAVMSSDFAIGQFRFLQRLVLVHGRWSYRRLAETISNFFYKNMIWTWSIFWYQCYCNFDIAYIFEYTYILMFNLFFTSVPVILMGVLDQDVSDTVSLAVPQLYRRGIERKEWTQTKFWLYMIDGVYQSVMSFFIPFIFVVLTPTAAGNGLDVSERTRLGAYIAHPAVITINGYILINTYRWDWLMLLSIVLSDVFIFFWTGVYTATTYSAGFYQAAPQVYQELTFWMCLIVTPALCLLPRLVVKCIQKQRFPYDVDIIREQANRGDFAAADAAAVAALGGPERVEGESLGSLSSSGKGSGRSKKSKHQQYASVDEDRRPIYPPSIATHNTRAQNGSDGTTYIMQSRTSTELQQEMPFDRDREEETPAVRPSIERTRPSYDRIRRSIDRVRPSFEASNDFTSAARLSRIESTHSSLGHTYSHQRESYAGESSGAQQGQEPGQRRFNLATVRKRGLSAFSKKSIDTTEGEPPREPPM
T1 sequence (G0SDN0 whole entry partner): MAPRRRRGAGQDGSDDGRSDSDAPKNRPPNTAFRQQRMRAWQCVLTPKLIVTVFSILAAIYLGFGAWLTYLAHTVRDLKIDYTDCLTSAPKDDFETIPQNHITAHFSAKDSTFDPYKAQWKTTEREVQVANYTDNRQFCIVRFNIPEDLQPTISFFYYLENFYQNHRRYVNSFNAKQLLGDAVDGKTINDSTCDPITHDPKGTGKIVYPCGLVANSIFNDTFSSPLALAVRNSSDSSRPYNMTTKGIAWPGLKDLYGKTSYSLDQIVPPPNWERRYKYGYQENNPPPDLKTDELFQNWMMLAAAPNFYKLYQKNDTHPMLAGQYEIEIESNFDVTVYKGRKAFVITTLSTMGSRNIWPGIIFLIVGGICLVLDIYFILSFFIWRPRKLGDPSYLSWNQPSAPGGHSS

Nc1ncnc2c1ncn2[C@@H]1O[C@H](COP(=O)(O)OP(=O)(O)CP(=O)(O)O)[C@@H](O)[C@H]1O [AMPPCP]
cryo-EM structure in lipid nanodiscs, 3.5 Å (ctDnf1p-Cdc50p [1]): In the E1-ATP structure, AMPPCP adapts an extended conformation

Nc1ncnc2c1ncn2[C@@H]1O[C@H](COP(=O)(O)OP(=O)(O)OP(=O)(O)O)[C@@H](O)[C@H]1O [ATP]
ATPase activity (ctDnf1p-Cdc50p [2]): The purified ctDnf1p-Cdc50p heterodimer showed phospholipid-dependent ATPase activity

[F][Be-]([F])[F] [BeF3^−]
cryo-EM structure in lipid nanodiscs, 3.4 Å (ctDnf1p-Cdc50p [3]): In the E2P structure, BeF3^− is bound at the phosphorylation site D606
